What was measured:
[1] = target: dipeptidyl aminopeptidase IV (Sus scrofa, UniProt P22411); test: In vitro stability in dipeptidyl aminopeptidase IV solution; conditions: pH 8; for half-life at 0.1 mg/ml: isolated enzyme dpp iv
Experimental: (§1) A SHT200D block heater from Stuart Scientific was used for heating of the peptide/enzyme solutions during the stability experiments. The degradation of the test compounds was studied at 37° C. in 50 mM phosphate buffer solutions of pH 7.4 containing leucine aminopeptidase (25 U/ml) or carboxypeptidase A (1 U/ml) or 100 mM ammoniumbicarbonate buffer of pH 8.0 containing dipeptidyl aminopeptidase IV (0.5 U/ml). Experiments were initiated by addition of an aliquot (100 μl) of a stock solution (1 mg/ml) of the peptide in water to 900 μl preheated enzyme solution in an Eppendorf microvial giving an initial concentration of 0.1 mg/ml (˜1.7·10−5-1.8·10−5 M) of the peptide. The peptide/enzyme solution was kept at 37° C. and at appropriate time intervals samples of 100 μl were withdrawn from the peptide/enzyme solution and mixed thoroughly with 20 μl 25% TFA in acetonitrile in order to stop the enzymatic degradation process. The inactivated samples were transferred to autosampler vials and analysed for content of intact test compound by HPLC as described below.
(§2) Samples from the stability experiments performed as described above were analysed by gradient HPLC analysis using the instrumentation described above and the following experimental conditions.
(§3) In vitro stability studies with the present peptides and peptide conjugates in the presence of selected proteolytic enzymes are applied as a tool for evaluating the protection of said peptides against proteolysis in vivo.
(§4) Water used was of highest quality obtained from a Milli-Q water treatment system (Millipore, Bedford, Mass., U.S.A.). Acetonitrile (ACN) was of super gradient quality obtained from Labscan Ltd. (Dublin, Ireland). […] Leucine aminopeptidase (EC 3.4.11.1), Carboxypeptidase A (EC 3.4.17.1) and Dipeptidyl peptidase (Dipeptidyl aminopeptidase IV, EC 3.4.14.5) were all obtained from Sigma (St. Louis, Mo., U.S.A.). Gradient HPLC analysis was done using a Hewlett Packard HP 1100 HPLC system consisting of a HP 1100 Binary Pump, a HP 1100 Autosampler, A HP 1100 Column Thermostat and a HP 1100 Variable Wavelength Detector. Hewlett Packard Chem-station for LC software (Rev. A.06.01) was used for instrument control and data acquisition. A Vydac 238TP54 (150×4.6 mm I.D.) column packed with 5 μm, C18, 300 Å

carboxypeptidase A = target: T1, carboxypeptidase A (Bos taurus, UniProt P00730); test: In vitro stability in carboxypeptidase A solution; conditions: pH 7.4; for half-life at 0.1 mg/ml: isolated enzyme carboxypeptidase
T1 sequence (P00730 111-419): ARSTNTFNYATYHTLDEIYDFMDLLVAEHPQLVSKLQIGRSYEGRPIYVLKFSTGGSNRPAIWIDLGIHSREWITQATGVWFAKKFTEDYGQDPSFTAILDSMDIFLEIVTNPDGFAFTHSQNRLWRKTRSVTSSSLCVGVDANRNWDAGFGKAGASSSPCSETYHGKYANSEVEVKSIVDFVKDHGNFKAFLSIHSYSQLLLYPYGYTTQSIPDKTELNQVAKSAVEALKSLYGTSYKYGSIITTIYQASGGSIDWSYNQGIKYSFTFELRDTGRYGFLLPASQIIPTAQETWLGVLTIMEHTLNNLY
Experimental: as §1, §2, §3, §4

leucine aminopeptidase = target: T2, leucine aminopeptidase (Sus scrofa, UniProt P28839); test: In vitro stability in leucine aminopeptidase solution; conditions: pH 7.4; for half-life at 0.1 mg/ml: isolated enzyme aminopeptidase
T2 sequence (P28839 1-519): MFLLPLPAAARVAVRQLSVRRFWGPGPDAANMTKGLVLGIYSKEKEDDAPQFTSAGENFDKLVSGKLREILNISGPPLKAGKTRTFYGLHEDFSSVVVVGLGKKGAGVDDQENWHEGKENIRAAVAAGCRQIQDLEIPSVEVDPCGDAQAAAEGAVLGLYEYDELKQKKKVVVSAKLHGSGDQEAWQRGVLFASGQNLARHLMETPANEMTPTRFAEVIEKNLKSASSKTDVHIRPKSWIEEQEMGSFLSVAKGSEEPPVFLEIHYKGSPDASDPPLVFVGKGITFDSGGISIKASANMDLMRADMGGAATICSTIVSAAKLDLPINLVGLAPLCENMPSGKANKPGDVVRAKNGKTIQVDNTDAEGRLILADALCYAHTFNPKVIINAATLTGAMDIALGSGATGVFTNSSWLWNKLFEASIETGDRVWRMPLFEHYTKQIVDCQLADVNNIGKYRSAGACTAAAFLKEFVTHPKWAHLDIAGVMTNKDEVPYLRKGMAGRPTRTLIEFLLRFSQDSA
Experimental: as §1, §2, §3, §4

Sequence of dipeptidyl aminopeptidase IV (P22411 whole entry): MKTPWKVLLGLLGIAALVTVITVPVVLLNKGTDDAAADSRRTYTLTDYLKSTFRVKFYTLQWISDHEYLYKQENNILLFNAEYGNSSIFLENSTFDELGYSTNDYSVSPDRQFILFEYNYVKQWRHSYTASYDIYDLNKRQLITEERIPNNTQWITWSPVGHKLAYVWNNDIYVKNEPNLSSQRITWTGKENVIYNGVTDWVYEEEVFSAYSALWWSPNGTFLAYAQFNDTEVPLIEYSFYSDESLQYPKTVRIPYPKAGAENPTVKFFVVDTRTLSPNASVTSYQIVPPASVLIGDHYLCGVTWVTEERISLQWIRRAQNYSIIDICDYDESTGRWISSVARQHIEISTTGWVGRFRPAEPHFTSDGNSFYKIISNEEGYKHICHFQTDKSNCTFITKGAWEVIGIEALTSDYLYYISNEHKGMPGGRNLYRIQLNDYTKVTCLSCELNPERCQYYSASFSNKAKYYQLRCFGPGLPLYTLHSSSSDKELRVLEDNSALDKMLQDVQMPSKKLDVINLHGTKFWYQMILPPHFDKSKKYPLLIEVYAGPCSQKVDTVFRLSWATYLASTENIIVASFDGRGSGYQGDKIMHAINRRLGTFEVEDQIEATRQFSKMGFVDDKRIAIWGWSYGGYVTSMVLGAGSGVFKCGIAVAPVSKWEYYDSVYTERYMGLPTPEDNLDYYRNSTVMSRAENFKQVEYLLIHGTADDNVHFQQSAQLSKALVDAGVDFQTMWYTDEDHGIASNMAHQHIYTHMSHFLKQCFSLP

SMILES | half-life at 0.1 mg/ml [1] | half-life at 0.1 mg/ml (carboxypeptidase A) | half-life at 0.1 mg/ml (leucine aminopeptidase) | half-life [1] | half-life (carboxypeptidase A) | half-life (leucine aminopeptidase)
CC[C@H](C)[C@H](NC(=O)[C@H](Cc1ccccc1)NC(=O)[C@H](CCC(=O)O)NC(=O)[C@H](CCCCN)NC(=O)[C@H](C)NC(=O)[C@H](C)NC(=O)[C@H](CCC(N)=O)NC(=O)CNC(=O)[C@H](CCC(=O)O)NC(=O)[C@H](CC(C)C)NC(=O)[C@H](Cc1ccc(O)cc1)NC(=O)[C@H](CO)NC(=O)[C@H](CO)NC(=O)[C@@H](NC(=O)[C@H](CC(=O)O)NC(=O)[C@H](CO)NC(=O)[C@@H](NC(=O)[C@H](Cc1ccccc1)NC(=O)[C@@H](NC(=O)CNC(=O)[C@H](CCC(=O)O)NC(=O)CNC(=O)[C@@H](N)Cc1c[nH]cn1)[C@@H](C)O)[C@@H](C)O)C(C)C)C(=O)N[C@@H](C)C(=O)N[C@@H](Cc1c[nH]c2ccccc12)C(=O)N[C@@H](CC(C)C)C(=O)N[C@H](C(=O)N[C@@H](CCCCN)C(=O)NCC(=O)N[C@@H](CCCNC(=N)N)C(=O)N[C@@H](CCCCN)C(=O)N[C@@H](CCCCN)C(=O)N[C@@H](CCCCN)C(=O)N[C@@H](CCCCN)C(=O)N[C@@H](CCCCN)C(=O)N[C@@H](CCCCN)C(N)=O)C(C)C [Compound 4] | 4.87 h | 2.42 h | ~36 h |  |  | 
CCCCCCCCCCCCCCCC(=O)NCCCC[C@H](NC(=O)[C@H](CCCNC(=N)N)NC(=O)CNC(=O)[C@H](CCCCN)NC(=O)[C@@H](NC(=O)[C@H](CC(C)C)NC(=O)[C@H](Cc1c[nH]c2ccccc12)NC(=O)[C@H](C)NC(=O)[C@@H](NC(=O)[C@H](Cc1ccccc1)NC(=O)[C@H](CCC(=O)O)NC(=O)[C@H](CCCCN)NC(=O)[C@H](C)NC(=O)[C@H](C)NC(=O)[C@H](CCC(N)=O)NC(=O)CNC(=O)[C@H](CCC(=O)O)NC(=O)[C@H](CC(C)C)NC(=O)[C@H](Cc1ccc(O)cc1)NC(=O)[C@H](CO)NC(=O)[C@H](CO)NC(=O)[C@@H](NC(=O)[C@H](CC(=O)O)NC(=O)[C@H](CO)NC(=O)[C@@H](NC(=O)[C@H](Cc1ccccc1)NC(=O)[C@@H](NC(=O)CNC(=O)[C@H](CCC(=O)O)NC(=O)CNC(=O)[C@@H](N)Cc1c[nH]cn1)[C@@H](C)O)[C@@H](C)O)C(C)C)[C@@H](C)CC)C(C)C)C(=O)N[C@@H](CCCCN)C(=O)N[C@@H](CCCCN)C(=O)N[C@@H](CCCCN)C(=O)N[C@@H](CCCCN)C(=O)N[C@@H](CCCCN)C(=O)N[C@@H](CCCCN)C(N)=O [Compound 5] |  |  |  | 7.33 h | > 48 h | > 72 h
CC[C@H](C)[C@H](NC(=O)[C@H](Cc1ccccc1)NC(=O)[C@H](CCC(=O)O)NC(=O)[C@H](CCCCN)NC(=O)[C@H](C)NC(=O)[C@H](C)NC(=O)[C@H](CCC(N)=O)NC(=O)CNC(=O)[C@H](CCC(=O)O)NC(=O)[C@H](CC(C)C)NC(=O)[C@H](Cc1ccc(O)cc1)NC(=O)[C@H](CO)NC(=O)[C@H](CO)NC(=O)[C@@H](NC(=O)[C@H](CC(=O)O)NC(=O)[C@H](CO)NC(=O)[C@@H](NC(=O)[C@H](Cc1ccccc1)NC(=O)[C@@H](NC(=O)CNC(=O)[C@H](CCC(=O)O)NC(=O)CNC(=O)[C@@H](N)Cc1cnc[nH]1)[C@@H](C)O)[C@@H](C)O)C(C)C)C(=O)N[C@@H](C)C(=O)N[C@@H](Cc1c[nH]c2ccccc12)C(=O)N[C@@H](CC(C)C)C(=O)N[C@H](C(=O)N[C@@H](CCCCN)C(=O)NCC(=O)N[C@@H](CCCNC(=N)N)C(N)=O)C(C)C [Compound (iii), reference compound] | 0.933 h | 2.12 h | 11.6 h |  |  | 

— patent USRE45313E1, “Exendin variant peptides” (priority 1999, dated 2014)
